# Tests used:
# HDAC6 = target: T1, HDAC6 (Homo sapiens, UniProt Q9UBN7); assay: HDAC6 activity assay (fluorescence); details: Compound 1 Log [nM] 4.0; Repeat1/Repeat2
# T1 sequence (Q9UBN7 1-1215): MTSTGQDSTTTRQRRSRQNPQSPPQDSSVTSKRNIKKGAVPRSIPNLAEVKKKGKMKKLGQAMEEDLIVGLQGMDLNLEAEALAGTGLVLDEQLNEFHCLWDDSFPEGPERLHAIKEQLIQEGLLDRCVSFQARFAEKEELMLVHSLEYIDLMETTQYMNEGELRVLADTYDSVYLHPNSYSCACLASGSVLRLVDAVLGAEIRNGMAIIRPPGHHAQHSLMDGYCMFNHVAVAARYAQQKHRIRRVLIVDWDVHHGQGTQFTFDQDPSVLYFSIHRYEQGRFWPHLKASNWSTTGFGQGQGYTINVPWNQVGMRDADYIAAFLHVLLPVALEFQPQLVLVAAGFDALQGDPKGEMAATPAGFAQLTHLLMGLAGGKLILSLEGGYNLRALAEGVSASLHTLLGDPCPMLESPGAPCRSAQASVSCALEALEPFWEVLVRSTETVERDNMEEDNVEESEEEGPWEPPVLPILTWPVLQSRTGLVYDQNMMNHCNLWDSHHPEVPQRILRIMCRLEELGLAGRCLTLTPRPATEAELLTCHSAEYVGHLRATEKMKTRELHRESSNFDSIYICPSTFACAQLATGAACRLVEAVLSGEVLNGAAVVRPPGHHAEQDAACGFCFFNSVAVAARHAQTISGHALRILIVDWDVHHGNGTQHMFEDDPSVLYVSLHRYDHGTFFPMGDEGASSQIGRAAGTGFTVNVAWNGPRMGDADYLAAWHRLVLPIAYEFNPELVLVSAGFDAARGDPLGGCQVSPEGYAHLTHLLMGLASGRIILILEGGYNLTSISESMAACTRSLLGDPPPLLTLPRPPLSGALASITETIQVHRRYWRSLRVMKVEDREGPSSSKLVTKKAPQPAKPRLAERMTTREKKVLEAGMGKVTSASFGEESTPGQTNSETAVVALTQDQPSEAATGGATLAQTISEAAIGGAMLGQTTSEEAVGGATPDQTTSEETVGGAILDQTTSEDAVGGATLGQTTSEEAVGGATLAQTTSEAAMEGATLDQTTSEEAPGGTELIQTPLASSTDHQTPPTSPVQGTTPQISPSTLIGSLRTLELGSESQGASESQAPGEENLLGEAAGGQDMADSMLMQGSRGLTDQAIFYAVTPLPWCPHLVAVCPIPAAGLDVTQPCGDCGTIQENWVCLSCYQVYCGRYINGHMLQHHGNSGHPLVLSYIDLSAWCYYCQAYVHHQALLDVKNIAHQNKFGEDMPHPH
# BDNF = BDNF levels in hippocampi of Aβ-infused mice; assay type: in vivo; details: for hippocampal BDNF levels after Aβ infusion: 20 mg/kg, i.p., 90 min before harvesting, Aβ-infused mice
# Text: 3(1): p. 12-29; Caccamo, A., et al., CBP gene transfer increases BDNF levels and ameliorates learning and memory deficits in a mouse model of Alzheimer's disease. Proc Natl Acad Sci USA, 2010. 107(52): p. 22687-92; each herein incorporated by reference in its entirety). […] The Journal of Neuroscience: The Official Journal of the Society for Neuroscience, 2007. 27(10): p. 2628-35; each herein incorporated by reference in its entirety). Thus, preliminary studies on Compound 1 efficacy were extended to BDNF. BDNF levels in the hippocampi of Aβ-infused mice were measured compared to vehicle infused animals. Consistent with the decrease in BDNF levels in brains of AD patients and animal models of AD, a reduction of BDNF levels following Aβ infusion was found (FIG. 23).
# wild-type mice = assay: Contextual fear conditioning; assay type: in vivo; details: for freezing 24 h after training: vs WT vehicle mice, single tone pairing with 0.35 mA foot shock
# Description: Contextual fear conditioning was performed to assess whether compound 1 is capable of enhancing memory. This type of cognitive test is much faster than other behavioral tasks that require multiple days of training and testing (J Clin Invest, 2004. 114(11): 1624-34; herein incorporated by reference in its entirety). The conditioning chamber was in a sound-attenuating box. A clear Plexiglas window allowed the experimenter to film the mouse performance with a camera placed on a tripod and connected to the Freezeframe software (MED Ass. Inc.). To provide background white noise (72 dB), a single computer fan was installed in one of the sides of the sound-attenuating chamber. […] The floor was removable, and after each experimental subject, it was cleaned with 75% ethanol and then with water. Only one animal at a time was present in the experimentation […].
# […] The mice remained in the chamber for an additional 30 sec after the end of the last pairing, after which they were returned to their home cages. Contextual fear conditioning was assayed 24 hr after training by replacing the animals in the conditioning context for a 5 min period, during which the incidence of freezing (immobile except for respiration) was recorded. […]
# Freezing behavior, defined as the absence of all movement except for that necessitated by breathing, was scored using the Freezeview software.
# To evaluate contextual fear learning, freezing was measured for 5 min (consecutively) in the chamber in which the mice was trained 24 hr after training. To evaluate cued fear learning, following contextual testing, the mice were placed in a novel context (triangular cage with smooth flat floor) for 2 min (pre-CS test), after which they were exposed to the CS for 3 min (CS test), and freezing was measured. Sensory perception of the shock was determined through threshold assessment. […] Initially, a […] shock was delivered for 1 sec, and the animal behavior was evaluated for flinching, jumping, and vocalization. […]
# [1] = Kinetics in blood sampled from tails; assay type: in vivo, mice; details: 20 mg/kg i.p.
smiles,measurement,setting,value
CCOc1cccc(OCCN(C)C)c1C(=O)Nc1ccc(Cl)c(C(F)(F)F)c1 [Compound 1],% Activity (HDAC6),HDAC6,94.62%
same,hippocampal BDNF levels after Aβ infusion,BDNF,rescued
same,hippocampal BDNF levels after Aβ infusion,BDNF; listed as YF2,rescued Aβ-induced decrease in hippocampal BDNF levels
same,hippocampal BDNF levels,BDNF; vehicle-infused mice,increased BDNF levels
same,freezing 24 h after training,wild-type mice; 5 mg/kg,froze nearly twice as often
same,freezing 24 h after training,wild-type mice; 20 mg/kg,froze nearly twice as often
same,memory effect,wild-type mice; weaker training protocol,worked as a memory enhancer
same,time of peak in blood post-injection,[1],around 30 minutes

# Reference: patent US9809532B2, “Uses of histone acetyltransferase activators” (THE TRUSTEES OF COLUMBIA UNIVERSITY IN THE CITY OF NEW YORK, priority 2011, dated 2017)
